Assay [1] deals with H2122 tumors. Particulars: for Average Tumor Volumes of H2122 Tumor Bearing Mice: Compound 478 100 mg/kg, trametinib 1 mg/kg. The protocol: Immunocompromised nude/nude mice were inoculated in the right hind flank with cells or patient derived tumor samples harboring a KRas G12C mutation. When tumor volumes reach between 200-400 mm^3 in size, the mice were divided into four groups of 5-12 mice each. The first group was administered vehicle only. […] The fourth group was orally administered the single agent dose of the KRas G12C inhibitor in combination with the single agent dose of the MEK inhibitor at the matched schedule. […] Tumor volumes were measured using a caliper every two-three days and tumor volumes are calculated by the formula: […].
For example, twenty nude/nude mice were inoculated in the right hind limb with 5×10^6 H2122 cells.

Another assay concerns LU99 tumors. The assay can be described thus: LU99 tumor model, Compound 478 and RO5126766 alone and in combination. In kind it is in vivo, nude/nude mice. Particulars: for Average Tumor Volumes of LU99 Tumor Bearing Mice: p.o. daily, Compound 478 30 mg/kg.
For assay [2], the system named is H2122 tumors. The assay can be described thus: H2122 tumor model, Compound 478 and RO5126766 alone and in combination. In kind it is in vivo, nude/nude mice. Particulars: Compound 478 100 mg/kg p.o daily, RO5126766 0.3 mg/kg p.o Q2D; for tumor growth inhibition: H2122 tumors, at Day 21.
Method: (§1) Immunocompromised nude/nude mice were inoculated in the right hind flank with cells or patient derived tumor samples harboring a KRas G12C mutation. When tumor volumes reach between 200-400 mm^3 in size, the mice were divided into four groups of 5-12 mice each. The first group was administered vehicle only. […] The fourth group was orally administered the single agent dose of the KRas G12C inhibitor in combination with the single agent dose of the MEK inhibitor at the matched schedule. […] Tumor volumes were measured using a caliper every two-three days and tumor volumes are calculated by the formula: 0.5×(Length×Width)2.
The test system of another assay is SW1573 tumors. Briefly: SW1573 tumor model, Compound 478 and RO5126766 alone and in combination. In kind it is in vivo, nude/nude mice. Particulars: Compound 478 100 mg/kg p.o daily, RO5126766 0.3 mg/kg p.o Q2D; for tumor growth inhibition: SW1573 tumors, at Day 20.
Where [3] appears, read: Study Day 1, RO5126766 0.3 mg/kg.
[4] abbreviates: Study Day 4, RO5126766 0.3 mg/kg.
Setting [5] is: Study Day 9, RO5126766 0.3 mg/kg.
Where [6] appears, read: Study Day 12, RO5126766 0.3 mg/kg.
Where [7] appears, read: Study Day 15, RO5126766 0.3 mg/kg.
Where [8] appears, read: Study Day 18, RO5126766 0.3 mg/kg.

Where two headings read alike, the source gives them in different places.

Method for LU99 tumors: as §1
Method for SW1573 tumors: as §1

`C=C(F)C(=O)N1CCN(c2nc(OC[C@@H]3CCCN3C)nc3c2CCN(c2cccc4cccc(Cl)c24)C3)C[C@@H]1CC#N` [Compound 478]: the tumor growth regression in the assay with H2122 tumors [1] (H2122 tumors, day not given, Compound 478 100 mg/kg p.o. daily) was 12%. The “Average Tumor Volumes of H2122 Tumor Bearing Mice” value with H2122 tumors [1] (Study Day 1, p.o. daily) was 315 mm^3; in the assay on H2122 tumors [1] (Study Day 7, p.o. daily) it was 233 mm^3; in the assay on H2122 tumors [1] (Study Day 21, p.o. daily), 270 mm^3; with H2122 tumors [1] (Study Day 24, p.o. daily) it was 254 mm^3; in the assay on H2122 tumors [1] (Study Day 32, p.o. daily) it was 287 mm^3; in the assay on H2122 tumors [1] (Study Day 35, p.o. daily), 305 mm^3. The “Average Tumor Volumes of H2122 Tumor Bearing Mice” value with H2122 tumors [1] (Study Day 38, p.o. daily) was 324 mm^3; in the assay on H2122 tumors [1] (Study Day 42, p.o. daily), 353 mm^3; in the assay with H2122 tumors [1] (Study Day 45, p.o. daily), 378 mm^3; with H2122 tumors [1] (Study Day 49, p.o. daily), 337 mm^3; in the assay on H2122 tumors [1] (Study Day 56, p.o. daily, dosing stopped on day 56) it was 371 mm^3; with H2122 tumors [1] (Study Day 63, after dosing stopped on day 56), 542 mm^3. The “Average Tumor Volumes of H2122 Tumor Bearing Mice” value was 802 mm^3 in the assay on H2122 tumors [1] (Study Day 70, after dosing stopped on day 56); 1073 mm^3 in the assay with H2122 tumors [1] (Study Day 77, after dosing stopped on day 56); 1294 mm^3 in the assay with H2122 tumors [1] (Study Day 85, after dosing stopped on day 56); 213.447 mm^3 in the assay on H2122 tumors [2] (Study Day 0); 229.5648 mm^3 with H2122 tumors [2] (Study Day 2); 285.0973 mm^3 with H2122 tumors [2] (Study Day 7). Besides, the entries for the “Average Tumor Volumes of H2122 Tumor Bearing Mice” value in the assay on H2122 tumors [2] (Study Day 9), in the assay with H2122 tumors [2] (Study Day 14) and in the assay with H2122 tumors [2] (Study Day 17) were 326.5344 mm^3, 319.1401 mm^3 and 378.2042 mm^3, respectively. Also, the tumor growth inhibition with LU99 tumors (LU99 tumors, Day 18, Compound 478 30 mg/kg p.o. daily) amounted to 81%; in the assay with H2122 tumors [2], 91%; in the assay on SW1573 tumors, 52%. The “Average Tumor Volumes of LU99 Tumor Bearing Mice” value worked out at 228.8452 mm^3 in the assay on LU99 tumors (setting [3]); 282.5161 mm^3 in the assay with LU99 tumors (setting [4]); 219.8962 mm^3 in the assay on LU99 tumors (setting [5]); 252.5981 mm^3 with LU99 tumors (setting [6]); 416.0955 mm^3 in the assay on LU99 tumors (setting [7]); 495.1032 mm^3 in the assay with LU99 tumors (setting [8]). For the same compound, the “Average Tumor Volumes of SW1573 Tumor Bearing Mice” value is reported as 145.1243 mm^3 with SW1573 tumors (Study Day 0); 201.0648 mm^3 with SW1573 tumors (Study Day 3); 253.1608 mm^3 with SW1573 tumors (Study Day 7); 365.7683 mm^3 in the assay on SW1573 tumors (Study Day 10); 394.367 mm^3 in the assay with SW1573 tumors (Study Day 13); 486.729 mm^3 in the assay on SW1573 tumors (Study Day 17). Moreover, the “Average Tumor Volumes of SW1573 Tumor Bearing Mice” value in the assay on SW1573 tumors (Study Day 20) is 534.3942 mm^3.

Turning to `CNS(=O)(=O)Nc1nccc(Cc2c(C)c3ccc(Oc4ncccn4)cc3oc2=O)c1F` [RO5126766, 3-[[3-fluoro-2-(methylsulfamoylamino)pyridin-4-yl]methyl]-4-methyl-7-pyrimidin-2-yloxychromen-2-one, reference compound], in the assay with LU99 tumors (LU99 tumors, at Day 18, RO5126766 0.3 mg/kg, Compound 478 30 mg/kg p.o. daily), the tumor regression was determined as 12%. Besides, the “Average Tumor Volumes of LU99 Tumor Bearing Mice” value with LU99 tumors (setting [3]) was found to be 232.1134 mm^3; in the assay with LU99 tumors (setting [4]), 247.33 mm^3; with LU99 tumors (setting [5]) it was 158.14 mm^3; in the assay on LU99 tumors (setting [6]), 126.8378 mm^3; in the assay with LU99 tumors (setting [7]), 181.1358 mm^3; in the assay on LU99 tumors (setting [8]), 200.6461 mm^3. Moreover, the tumor growth inhibition in the assay on H2122 tumors [2] is 59%; in the assay with SW1573 tumors, 51%. In addition, the “Average Tumor Volumes of H2122 Tumor Bearing Mice” value in the assay with H2122 tumors [2] (Study Day 0) came out at 212.4101 mm^3; with H2122 tumors [2] (Study Day 2), 327.3898 mm^3; in the assay with H2122 tumors [2] (Study Day 7), 463.4062 mm^3; in the assay with H2122 tumors [2] (Study Day 9), 474.4923 mm^3; with H2122 tumors [2] (Study Day 14), 504.5922 mm^3; with H2122 tumors [2] (Study Day 17), 576.573 mm^3. Further, the “Average Tumor Volumes of H2122 Tumor Bearing Mice” value in the assay with H2122 tumors [2] (Study Day 21) is on record as 772.6155 mm^3. Moreover, the “Average Tumor Volumes of SW1573 Tumor Bearing Mice” value stood at 249.5609 mm^3 in the assay with SW1573 tumors (Study Day 0); 280.2067 mm^3 with SW1573 tumors (Study Day 3); 299.7596 mm^3 in the assay with SW1573 tumors (Study Day 7); 395.0633 mm^3 with SW1573 tumors (Study Day 10); 458.1809 mm^3 in the assay on SW1573 tumors (Study Day 13); 469.133 mm^3 in the assay with SW1573 tumors (Study Day 17). Further, the “Average Tumor Volumes of SW1573 Tumor Bearing Mice” value in the assay with SW1573 tumors (Study Day 20) worked out at 480.1852 mm^3.

`CC(=O)Nc1cccc(-n2c(=O)n(C3CC3)c(=O)c3c(Nc4ccc(I)cc4F)n(C)c(=O)c(C)c32)c1` [Trametinib, N-(3-(3-cyclopropyl-5-((2-fluoro-4-iodophenyl)amino)-6,8-dimethyl-2,4,7-trioxo-3,4,6,7-tetrahydropyrido[4,3-d]pyrimidin-1 (2H)-yl)phenyl) acetamide, reference compound]: in the assay on H2122 tumors [1] (H2122 tumors, at Day 32, trametinib 1 mg/kg p.o. daily), the tumor growth inhibition stood at 60%. Further, the “Average Tumor Volumes of H2122 Tumor Bearing Mice” value in the assay on H2122 tumors [1] (Study Day 1, p.o. daily) came out at 301 mm^3; in the assay with H2122 tumors [1] (Study Day 3, p.o. daily) it was 385 mm^3; with H2122 tumors [1] (Study Day 7, p.o. daily), 447 mm^3; in the assay with H2122 tumors [1] (Study Day 10, p.o. daily), 462 mm^3; in the assay with H2122 tumors [1] (Study Day 15, p.o. daily), 534 mm^3; in the assay with H2122 tumors [1] (Study Day 17, p.o. daily) it was 582 mm^3. The “Average Tumor Volumes of H2122 Tumor Bearing Mice” value in the assay with H2122 tumors [1] (Study Day 21, p.o. daily) came out at 667 mm^3; in the assay on H2122 tumors [1] (Study Day 24, p.o. daily), 778 mm^3; in the assay with H2122 tumors [1] (Study Day 28, p.o. daily), 673 mm^3; with H2122 tumors [1] (Study Day 32, p.o. daily) it was 816 mm^3.

For the origin of these results see patent publication US20250177399A1, “COMBINATION THERAPIES” (MIRATI THERAPEUTICS, INC., priority 2021, published 2025).
